Reference: patent US10730863B2, “Bridged bicyclic compounds as farnesoid X receptor modulators” (BRISTOL-MYERS SQUIBB COMPANY, priority 2017, dated 2020)

molecular target: FXR (Homo sapiens (Human), UniProt Q96RI1); experiment: FXR EC50 (FXR agonist activity reported with each example); format: cell-based
Sequence (Q96RI1 262-486): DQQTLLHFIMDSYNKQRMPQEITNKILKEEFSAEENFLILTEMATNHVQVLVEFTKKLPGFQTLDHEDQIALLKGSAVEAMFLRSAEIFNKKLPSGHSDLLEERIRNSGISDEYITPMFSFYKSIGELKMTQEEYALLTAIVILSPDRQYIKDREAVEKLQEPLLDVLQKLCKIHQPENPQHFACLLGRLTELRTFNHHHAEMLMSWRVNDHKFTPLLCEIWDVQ

SMILES | EC50 [nM]
O=C(O)Cc1noc(C23CCC(OCc4c(-c5c(Cl)cccc5Cl)noc4C4CC4)(CC2)CC3)n1 [Example 72, 2-(5-(4-((5-cyclopropyl-3-(2,6-dichlorophenyl)isoxazol-4-yl)methoxy)bicyclo[2.2.2]octan-1-yl)-1,2,4-oxadiazol-3-yl)acetic acid] | 3100
OCc1noc(C23CCC(OCc4c(-c5c(Cl)cccc5Cl)noc4C4CC4)(CC2)CC3)n1 [Example 73, (5-(4-((5-cyclopropyl-3-(2,6-dichlorophenyl)isoxazol-4-yl)methoxy)bicyclo[2.2.2]octan-1-yl)-1,2,4-oxadiazol-3-yl)methanol] | 600
NC(=O)c1noc(C23CCC(OCc4c(-c5c(Cl)cccc5Cl)noc4C4CC4)(CC2)CC3)n1 [Example 74, 5-(4-((5-cyclopropyl-3-(2,6-dichlorophenyl)isoxazol-4-yl)methoxy)bicyclo[2.2.2]octan-1-yl)-1,2,4-oxadiazole-3-carboxamide] | 520
O=C(O)c1cnn(CC23CCC(OCc4c(-c5c(Cl)cccc5Cl)noc4C4CC4)(CC2)CC3)c1 [Example 76, 1-((4-((5-cyclopropyl-3-(2,6-dichlorophenyl)isoxazol-4-yl)methoxy)bicyclo[2.2.2]octan-1-yl)methyl)-1H-pyrazole-4-carboxylic acid] | 290
O=C(O)c1cccc(OCC23CCC(OCc4c(-c5ccccc5OC(F)(F)F)noc4C4CC4)(CC2)CC3)c1 [Example 77] | 180
O=C(O)c1cc(F)c2nc(OCC34CCC(OCc5c(-c6ccccc6OC(F)(F)F)noc5C5CC5)(CC3)CC4)sc2c1 [Example 79] | 130
O=C(O)[C@@H]1CCC[C@H](OCC23CCC(OCc4c(-c5ccccc5OC(F)(F)F)noc4C4CC4)(CC2)CC3)C1 [Example 80] | 5100
O=C(O)[C@@H]1CCC[C@H](OCC23CCC(OCc4c(-c5ccccc5OC(F)(F)F)noc4C4CC4)(CC2)CC3)C1 [Example 81] | 4700
O=C(O)c1cccc(OCC23CCC(OCc4c(-c5c(Cl)cccc5Cl)noc4C4CC4)(CC2)CC3)c1 [Example 82, 3-((4-((5-cyclopropyl-3-(2,6-dichlorophenyl)isoxazol-4-yl)methoxy)bicyclo[2.2.2]octan-1-yl)methoxy) benzoic acid] | 22
O=C(O)c1cc(F)c2nc(OCC34CCC(OCc5c(-c6c(Cl)cccc6Cl)noc5C5CC5)(CC3)CC4)sc2c1 [Example 83, 2-((4-((5-cyclopropyl-3-(2,6-dichlorophenyl)isoxazol-4-yl)methoxy)bicyclo[2.2.2]octan-1-yl)methoxy)-4-fluorobenzo[d]thiazole-6-carboxylic acid] | 18
Cn1cc(C(=O)O)c2ccc(OCC34CCC(OCc5c(-c6ccccc6OC(F)(F)F)noc5C5CC5)(CC3)CC4)cc21 [Example 84] | 320
O=C(O)c1cccc(NCC23CCC(OCc4c(-c5ccccc5OC(F)(F)F)noc4C4CC4)(CC2)CC3)c1 [Example 85] | 610
N#Cc1cccc(OCC23CCC(OCc4c(-c5c(Cl)cccc5Cl)noc4C4CC4)(CC2)CC3)c1 [Example 88, 3-((4-((5-cyclopropyl-3-(2,6-dichlorophenyl)isoxazol-4-yl)methoxy)bicyclo[2.2.2]octan-1-yl)methoxy)benzonitrile] | 960
Clc1cccc(Cl)c1-c1noc(C2CC2)c1COC12CCC(COc3cccc(-c4nn[nH]n4)c3)(CC1)CC2 [Example 89, 4-((4-((3-(2H-tetrazol-5-yl)phenoxy)methyl)bicyclo[2.2.2]octan-1-yloxy)methyl)-5-cyclopropyl-3-(2,6-dichlorophenyl)isoxazole] | 120
Cn1cc(C(=O)O)c2ccc(OCC34CCC(OCc5c(-c6c(Cl)cccc6Cl)noc5C5CC5)(CC3)CC4)cc21 [Example 90, 6-((4-((5-cyclopropyl-3-(2,6-dichlorophenyl)isoxazol-4-yl)methoxy)bicyclo[2.2.2]octan-1-yl)methoxy)-1-methyl-1H-indole-3-carboxylic acid] | 11
O=C(O)c1cccc(OCC23CCC(OCc4c(-c5c(Cl)cncc5Cl)noc4C4CC4)(CC2)CC3)c1 [Example 91, 3-((4-((5-cyclopropyl-3-(3,5-dichloropyridin-4-yl)isoxazol-4-yl)methoxy)bicyclo[2.2.2]octan-1-yl)methoxy) benzoic acid] | 33
O=C(O)c1ccc(F)c(OCC23CCC(OCc4c(-c5c(Cl)cccc5Cl)noc4C4CC4)(CC2)CC3)c1 [Example 92, 3-((4-((5-cyclopropyl-3-(2,6-dichlorophenyl)isoxazol-4-yl)methoxy)bicyclo[2.2.2]octan-1-yl)methoxy)-4-fluorobenzoic acid] | 23

SMILES | EC50 [nM]
O=C(O)c1cc(OCC23CCC(OCc4c(-c5c(Cl)cccc5Cl)noc4C4CC4)(CC2)CC3)ccc1F [Example 93, 5-((4-((5-cyclopropyl-3-(2,6-dichlorophenyl)isoxazol-4-yl)methoxy)bicyclo[2.2.2]octan-1-yl)methoxy)-2-fluorobenzoic acid] | 32
O=C(O)c1cc(F)cc(OCC23CCC(OCc4c(-c5c(Cl)cccc5Cl)noc4C4CC4)(CC2)CC3)c1 [Example 94, 3-((4-((5-cyclopropyl-3-(2,6-dichlorophenyl)isoxazol-4-yl)methoxy)bicyclo[2.2.2]octan-1-yl)methoxy)-5-fluorobenzoic acid] | 18
Cc1c(OCC23CCC(OCc4c(-c5c(Cl)cccc5Cl)noc4C4CC4)(CC2)CC3)cccc1C(=O)O [Example 95, 3-((4-((5-cyclopropyl-3-(2,6-dichlorophenyl)isoxazol-4-yl)methoxy)bicyclo[2.2.2]octan-1-yl)methoxy)-2-methylbenzoic acid] | 400
O=C(O)c1cccc(OCC23CCC(OCc4c(-c5c(Cl)cccc5Cl)noc4C4CC4)(CC2)CC3)c1F [Example 96, 3-((4-((5-cyclopropyl-3-(2,6-dichlorophenyl)isoxazol-4-yl)methoxy)bicyclo[2.2.2]octan-1-yl)methoxy)-2-fluorobenzoic acid] | 120
Cn1cc(C(=O)O)c2ccc(OCC34CCC(OCc5c(-c6c(Cl)cncc6Cl)noc5C5CC5)(CC3)CC4)cc21 [Example 97, 6-((4-((5-cyclopropyl-3-(3,5-dichloropyridin-4-yl)isoxazol-4-yl)methoxy)bicyclo[2.2.2]octan-1-yl)methoxy)-1-methyl-1H-indole-3-carboxylic acid] | 28
O=C(O)c1ccc(F)c(OCC23CCC(OCc4c(-c5c(Cl)cncc5Cl)noc4C4CC4)(CC2)CC3)c1 [Example 98, 3-((4-((5-cyclopropyl-3-(3,5-dichloropyridin-4-yl)isoxazol-4-yl)methoxy)bicyclo[2.2.2]octan-1-yl)methoxy)-4-fluorobenzoic acid] | 22
O=C(O)c1ccc(OCC23CCC(OCc4c(-c5c(Cl)cccc5Cl)noc4C4CC4)(CC2)CC3)cc1 [Example 99, 4-((4-((5-cyclopropyl-3-(2,6-dichlorophenyl)isoxazol-4-yl)methoxy)bicyclo[2.2.2]octan-1-yl)methoxy) benzoic acid] | 140
O=C(O)c1cc(C(F)(F)F)c2cc(OCC34CCC(OCc5c(-c6c(Cl)cccc6Cl)noc5C5CC5)(CC3)CC4)ccc2n1 [Example 100, 6-((4-((5-cyclopropyl-3-(2,6-dichlorophenyl)isoxazol-4-yl)methoxy)bicyclo[2.2.2]octan-1-yl)methoxy)-4-(trifluoromethyl) quinoline-2-carboxylic acid] | 7
O=C(O)c1cc(OCC23CCC(OCc4c(-c5c(Cl)cncc5Cl)noc4C4CC4)(CC2)CC3)cc(C(F)(F)F)c1 [Example 103, 3-((4-((5-cyclopropyl-3-(3,5-dichloropyridin-4-yl)isoxazol-4-yl)methoxy)bicyclo[2.2.2]octan-1-yl)methoxy)-5-(trifluoromethyl)benzoic acid] | 4
O=C(O)Cc1ccnc(OCC23CCC(OCc4c(-c5c(Cl)cccc5Cl)noc4C4CC4)(CC2)CC3)c1 [Example 104, 2-(2-((4-((5-cyclopropyl-3-(2,6-dichlorophenyl)isoxazol-4-yl)methoxy)bicyclo[2.2.2]octan-1-yl)methoxy)pyridin-4-yl)acetic acid] | 210
O=C(O)c1ccc2cc(OCC34CCC(OCc5c(-c6c(Cl)cccc6Cl)noc5C5CC5)(CC3)CC4)ccc2n1 [Example 105, 6-((4-((5-cyclopropyl-3-(2,6-dichlorophenyl)isoxazol-4-yl)methoxy)bicyclo[2.2.2]octan-1-yl)methoxy)quinoline-2-carboxylic acid] | 76
O=C(O)Cc1cccc(OCC23CCC(OCc4c(-c5c(Cl)cccc5Cl)noc4C4CC4)(CC2)CC3)c1 [Example 106, 2-(3-((4-((5-cyclopropyl-3-(2,6-dichlorophenyl)isoxazol-4-yl)methoxy)bicyclo[2.2.2]octan-1-yl)methoxy)phenyl)acetic acid] | 160
O=C(O)c1ccc(OCC23CCC(OCc4c(-c5c(Cl)cccc5Cl)noc4C4CC4)(CC2)CC3)nc1 [Example 107, 6-((4-((5-cyclopropyl-3-(2,6-dichlorophenyl)isoxazol-4-yl)methoxy)bicyclo[2.2.2]octan-1-yl)methoxy)nicotinic acid] | 77
O=C(O)c1ccnc(OCC23CCC(OCc4c(-c5c(Cl)cccc5Cl)noc4C4CC4)(CC2)CC3)n1 [Example 108, 2-((4-((5-cyclopropyl-3-(2,6-dichlorophenyl)isoxazol-4-yl)methoxy)bicyclo[2.2.2]octan-1-yl)methoxy)pyrimidine-4-carboxylic acid] | 540
O=C(O)c1cncc(OCC23CCC(OCc4c(-c5c(Cl)cccc5Cl)noc4C4CC4)(CC2)CC3)c1 [Example 109, 5-((4-((5-cyclopropyl-3-(2,6-dichlorophenyl)isoxazol-4-yl)methoxy)bicyclo[2.2.2]octan-1-yl)methoxy)nicotinic acid] | 150
O=C(O)c1cccc(OCC23CCC(OCc4c(-c5c(Cl)cccc5Cl)noc4C4CC4)(CC2)CC3)n1 [Example 110, 6-((4-((5-cyclopropyl-3-(2,6-dichlorophenyl)isoxazol-4-yl)methoxy)bicyclo[2.2.2]octan-1-yl)methoxy)picolinic acid] | 52
O=C(O)c1ccnc(OCC23CCC(OCc4c(-c5c(Cl)cccc5Cl)noc4C4CC4)(CC2)CC3)c1 [Example 111, 2-((4-((5-cyclopropyl-3-(2,6-dichlorophenyl)isoxazol-4-yl)methoxy)bicyclo[2.2.2]octan-1-yl)methoxy)isonicotinic acid] | 110
